Source: US20230218654A1, “COMPOSITIONS AND METHODS FOR TREATING HYPERGLYCEMIA IN TYPE-2 DIABETES” (The Board of Regents of the university of Oklahoma, priority 2020, published 2023)

Tests used:
[1] = test system: skeletal muscle cullin neddylation and AKT phosphorylation; test: Western blot of gastrocnemius (skeletal) muscle after acute MLN4924; format: in vivo, mice; details: chow diet; 60 mg/kg SQ twice
Protocol: Male C57BL/6J mice on chow diet were treated with 60 mg/kg MLN6924 via subcutaneous (SQ) injection at 5 pm on day 1 and 9 am on day 2. Mice were fasted from 9 am to 3 pm on day 2 and sacrificed. Effect of MLN4924 on gastrocnemius muscle cullin neddylation and AKT phosphorylation was measured by Western blotting.
Human normal livers (less than 5% steatosis) and histologically confirmed NASH livers were obtained from either the University of Kansas Liver Center or the Liver Tissue Cell Distribution System (LTCDS) at the University of Minnesota. Human and mouse tissue samples were homogenized in 1XRIPA buffer containing 1% SDS and protease inhibitors. After incubation on ice for 1 hour, the samples were centrifugation and supernatant was transferred to a new tube. The protein lysate was mixed with equal volume of 2X laemmli buffer and incubated at 95° C. for 5 minutes and used for SDS-PAGE and immunoblotting. ImageJ software (NIH) was used to determine band intensity.
To further explore the hepatic insulin sensitizing effect of neddylation inhibition in vivo, we administered MLN4924 to chow-fed mice twice via subcutaneous (SQ) injection (5 pm on day 1 and 9 am on day 2) and studied the acute effect of MLN4924. The dose of 60 mg/kg is in line with published literature. […] In addition to liver, skeletal muscle is another organ that quantitatively contribute to plasma glucose homeostasis.

[2] = test system: male C57BL/6J mice fed C or WD; test: Intervention study: MLN4924 initiated after 8 weeks of WD feeding; format: in vivo
Protocol: MLN4924 (60 mg/kg, SQ) was given every other day for the last 8 weeks of the 16-week feeding. For both cohorts, body weight was measured weekly. Results are mean ±SEM. n=5-7. “*”, vs C+Veh; “#”, vs. WD+Veh, p<0.05. ns= Not significant.
Male C57BL/6J mice were fed chow or WD for 16 weeks. Vehicle or MLN4924 treatment (60 mg/kg, SQ, once every two days) was initiated after 8 weeks of WD feeding. Analyses were performed after 16 weeks of feeding. Results are mean ± SEM. n=5-8. “*”, vs C+Veh; “#”, vs. WD+Veh, p<0.05. Normalized densitometry was shown in low panel bar graphs.
(§1) Male C57BL/6J mice were purchased from the Jackson Laboratory (Bar Harbor, ME). Mice were fed a regular chow (C) diet or a Western diet (WD) that contains 42% fat calories and 0.2% cholesterol content (TD. 88137, Envigo Inc. Indianapolis, IN).
(§2) MLN4924 and TAS4464 were purchased from MedChemExpress (MCE, Monmouth Junction, NJ). For cell treatment, MLN4924 and TAS4464 were dissolved in DMSO. Cells were serum starved overnight and then treated with MLN4924, TAS4464 and/or insulin as indicated. For injection in mice, MLN4924 and TAS4464 were first dissolved in DMSO, which was further suspended in 10% (2-hydroxypropyl)-β-cyclodextrin (Sigma, St. Louis, MO). The final solution contains 1% DMSO. The subcutaneous injection volume is 200 µl/mouse.
(§3) Lipids were extracted in a mixture of chloroform: methanol (2:1; v: v), dried under nitrogen, and resuspended in isopropanol containing 1% triton X-100. Total cholesterol, free cholesterol and TG were measured with assay kits following the manufacturer’s instruction. Total cholesterol assay kit and TG assay kit were purchased from Pointe Scientific (Canton, MI).
(§4) Aspartate aminotransferase (AST) and alanine aminotransferase (ALT) assay kits were purchased from Pointe Scientific (Canton, MI). Free fatty acid assay kit was purchased from Biovision Inc. (Milpitas, CA). Insulin ELISA kit was purchased from Crystal Chem Inc. (Elk Grove Village, IL).
(§5) Next investigated was the glucose lowering effect of CRL inhibition in mice rendered obese and insulin resistant by 16-weeks of WD feeding. […] Next conducted was an intervention study in which MLN4924 treatment was initiated after mice were fed WD for 8 weeks that rendered mice obese and insulin resistant. […] In summary, robust evidence is provided herein that pharmacological CRL inhibition is an effective approach to lowering hyperglycemia.

[3] = test system: male C57BL/6J mice fed C or WD; test: Prevention experiment: MLN4924 twice/week during 16 weeks of WD feeding; format: in vivo
Protocol: Mice fed WD became obese and insulin resistant. For both cohorts, body weight was measured weekly. Male C57BL/6J mice were fed C or WD for 16 weeks. Vehicle or MLN4924 (60 mg/kg) was administered via SQ injection twice/week for 16 weeks. Results are mean ±SEM. n=5-7. “*”, vs C+Veh; “#”, vs. WD+Veh, p<0.05.
as §1, §2, §3, §4, §5

[4] = test system: differentiated C2C12 myocytes; test: Western blot of insulin signaling in differentiated C2C12 myocytes; format: cell-based; details: 500 nM, 1 h, then 100 nM insulin in time course
Protocol: Differentiated C2C12 myocytes were pre-treated with MLN4924 (500 nM) for 1 h followed by 100 nM insulin treatment in time course.
C2C12 myoblast cells were cultured in DMEM medium supplemented with 10% FBS. When cells grow to 60% confluency, differentiation into myocytes was induced by culturing cells in DMEM supplemented with 2% horse serum for 4-6 days. Cells were then serum starved overnight and treated with 500 nM MLN4924 or DMSO for 6 h and then stimulated with 100 nM insulin for 1 hour as indicated. Glucose uptake was measured with a Glucose uptake Glo^tm assay kit that was purchased from Promega (Madison, WI).
Skeletal muscle is a major organ that is responsible for the majority of the blood glucose clearance during postprandial state. Insulin resistance in muscle causes impaired insulin-stimulated glucose uptake that contributes to hyperglycemia in diabetes. To determine if CRL inhibition in muscle cells may contribute to the insulin sensitizing and glucose lowering effect in obese mice, differentiated C2C12 myocytes were treated with MLN4924 to inhibit CRLs (FIG. 8A). […] To further determine if MLN4924 treatment increases muscle glucose clearance, a glucose tolerance test (GTT) was performed, in which reduction of glucose excursion is mainly attributed to blood glucose clearance by muscle.

[5] = WD 16 weeks, 60 mg/kg SQ every other day for last 8 weeks
[6] = WD 16 weeks, 60 mg/kg SQ twice/week

## NS(=O)(=O)OC[C@@H]1C[C@@H](n2ccc3c(N[C@H]4CCc5ccccc54)ncnc32)C[C@@H]1O [MLN4924, ((1S,2S,4R)-4-(4-((1S)-2,3-dihydro-1H-inden-1-ylamino)-7H-pyrrolo[2,3-d]pyrimidin-7-yl)-2-hydroxycyclopentyl) methyl sulfamate]
[1]
  increase of AKT phosphorylation in skeletal muscle: did not
  increase of IRS protein abundance in skeletal muscle: did not
  inhibition of cullin neddylation in skeletal muscle: did not inhibit cullin neddylation
[2]; [5]
  blood glucose (6 h fast): normalized blood glucose
  hepatic steatosis as measured by liver TGs: lowered hepatic steatosis
  serum AST: decreased serum AST
[2]; WD 16 weeks, 60 mg/kg SQ once every two days after 8 weeks
  liver IRS protein abundance: increases liver IRS protein abundance
[2]; chronic WD-fed mice
  hepatic AKT phosphorylation: increased hepatic AKT phosphorylation
[3]; 16 weeks of MLN4924, 60 mg/kg SQ twice/week
  tolerability / hepatotoxicity: well tolerated and did not cause hepatotoxicity
[3]; C-fed mice, after 16 weeks of MLN4924
  transaminase (ALT) elevation: did not cause transaminase (ALT) elevation
[3]; [6]
  blood glucose (6 h fast): completely normalized blood glucose
  reduction of hepatic cholesterol: ~ 30%
  reduction of hepatic triglycerides (TG): ~ 40%
[3]; WD-fed mice, 16 weeks of MLN4924
  serum ALT: significantly reduced
[4]
  IRS1 and IRS2 degradation upon insulin stimulation: delayed IRS1 and IRS2 degradation
  insulin activation of AKT phosphorylation: increased insulin activation of AKT phosphorylation
